Reference: ChEMBL document CHEMBL5036374, “2-Oxooxazolidine-5-carboxamides as Nav1.8 Inhibitors for Treating Pain Disorders, Cough Disorders, and Acute and Chronic Itch Disorders” (ACS Med Chem Lett, 2022)

Test: Inhibition of human Nav1.8 expressed in HEK293 cells assessed as sodium current flow at holding potential of -90mV by Whole cell-automated patch clamp assay
Type: cell-based

| SMILES | IC50 [nM] |
| --- | --- |
| O=C1NC[C@@H](C(=O)NC(c2ccc(Cl)cc2)c2ccc(F)c(Cl)c2)O1 (stereo partly specified) | 0.9 |
| O=C1NC[C@@H](C(=O)NC(c2ccc(F)c(Cl)c2)c2ccc(F)c(Cl)c2)O1 | 0.7 |
| O=C1NC[C@@H](C(=O)NC(c2ccc(Cl)cc2)c2ccc(Cl)c(C(F)(F)F)c2)O1 (stereo partly specified) | 0.4 |
| O=C1NC[C@@H](C(=O)NC(c2ccc(Cl)cc2)c2ccc(Cl)c(C(F)(F)F)n2)O1 (stereo partly specified) | 0.6 |
| O=C1NC[C@@H](C(=O)NC(c2ccc(OC(F)(F)F)c(Cl)c2)c2cnn(C(F)(F)F)c2)O1 (stereo partly specified) | 1.2 |
| Cc1cc(C(NC(=O)[C@@H]2CNC(=O)O2)c2ccc(Cl)cc2)ccc1Cl (stereo partly specified) | 0.6 |
